Several values for one entry are separate records, joined by “and”; a condition that tells them apart may be missing. Equal values may be shown once.
Legend:
MCF-7 cells [1] = test: MTT colorimetric change and cell viability after light irradiation; assay type: cell-based, human; conditions: MCF-7, protein 10 μM 24 hours, light 10 mW/cm^2, no Co-h
Experimental: MCF-7 cells were seeded at 5×10^5 cells/mL in a 96-well plate (SPL Cell Culture Plate, 96 well (SPL, Cat #30096)), and cultured at 37° C. for 24 hours (overnight). After the overnight culture, the cells were washed with FBS & Phenol red-free media (RPMI, Well Gene., Korea, Cat #LM011-02), and 100 μL of an FBS-free medium containing the purified protein (final concentration: 10 μM) was added, followed by reaction at 37° C. for 24 hours. After the reaction for 24 hours, the cells were washed with FBS & Phenol red-free media (RPMI), and then 100 μL of FBS & Phenol red-free media (RPMI) was added again. After light irradiation at 10 mW/cm^2 over time, the cells were washed with FBS & Phenol red-free media (RPMI), and 100 μL of FBS & Phenol red-free media (RPMI) was added again. 10 μL of 3-(4,5-dimethylthiazol-2-yl)-2,5-diphenyltetrazolium bromide (MTT; Cell Biolabs Inc., USA; final concentration: 1×) was added, followed by reaction at 37° C. for 4 hours. 100 μL of a supernatant was removed, and 100 μL of DMSO (Sigma-Aldrich., USA) was added, followed by reaction for 10 minutes. The colorimetric change of MTT according to a protein type treated to the cells and light irradiation time was confirmed, and then cell viability was confirmed by measuring the absorbance intensity at 570 nm using a plate reader.

MCF-7 cells [2] = test: MTT colorimetric change and cell viability after reaction with Co-h substrate; assay type: cell-based, human; conditions: MCF-7, protein 10 μM 24 hours, Co-h 150 μM, without light irradiation
Experimental: MCF-7 cells were seeded at 5×10^5 cells/mL in a 96-well plate (SPL Cell Culture Plate, 96 well (SPL, Cat #30096)), and cultured at 37° C. for 24 hours (overnight).
After the culture for 24 hours, the cells were washed with FBS & Phenol red-free media (RPMI), and 100 μL of an FBS-free medium containing the purified protein (final concentration: 10 μM) was added, followed by reaction at 37° C. for 24 hours.
After the reaction for 24 hours, the cells were washed with FBS & Phenol red-free media (RPMI), and then 100 μL of FBS & Phenol red-free media (RPMI) containing a Co-h substrate solution (final concentration: 150 μM) was added. The cells were washed with FBS & Phenol red-free media (RPMI), and 100 μL of fresh FBS & Phenol red-free media (RPMI) were then added.
10 μL of 3-(4,5-dimethylthiazol-2-yl)-2,5-diphenyltetrazolium bromide (MTT) (final concentration: 1×) was added, followed by reaction at 37° C. for 4 hours. After 100 μL of a supernatant was removed, 100 μL of DMSO was added, followed by reaction for 10 minutes. The colorimetric change of MTT according to a protein type treated to the cells and the light irradiation time was checked, and then cell viability was confirmed by measuring the absorbance intensity at 570 nm using a plate reader. […]

BT-474 = test: Cell death with Co-h substrate by cell type (SYTOX Green or EthD-1/DAPI); assay type: cell-based, human; conditions: BT-474, protein 10 μM, Co-h 150 μM for 5 minutes
Experimental: (§1) The cells were seeded at 5×10^5 cells/mL in 96-well plates (SPL Cell Culture Plate, 96 well (SPL, Cat #30096)), and cultured at 37° C. for 24 hours (overnight). After the culture for 24 hours, the cells were washed with FBS & phenol red-free media, and 100 μL of FBS & phenol red-free media containing a purified protein (final concentration: 10 μM) was added, followed by reaction at 37° C. for 24 hours.
(§2) Subsequently, the cells were washed with FBS & phenol red-free media, and 100 μL of FBS & phenol red-free media was added. 100 μL of FBS & Phenol red-free media (RPMI) containing a Co-h substrate solution (final concentration: 150 μM) was added, followed by reaction at 37° C. for 5 minutes.
(§3) After the reaction, 50 μL of SYTOX Green (final concentration: 261 nM) or 90 μL of ethidium homodimer (EthD-1) (final concentration 1×), which stains DNA of dead cells, was added, followed by reaction at 37° C. for 30 minutes. 10 μL of DAPI staining DNA of live cells was added, followed by reaction for 5 minutes. Cell death was confirmed by observing KillerRed, SYTOX Green, MiniSOG, EthD-1 and DAPI fluorescence using a confocal microscope.

MCF-10A = test: as above; assay type: cell-based, human; conditions: protein 10 μM, Co-h 150 μM for 5 minutes
Experimental: as §1, §2, §3

MDA-MB-435 = test: as above; assay type: cell-based, human; conditions: MDA-MB-435, protein 10 μM, Co-h 150 μM for 5 minutes
Experimental: as §1, §2, §3

MCF-7 = test: as above; assay type: cell-based, human; conditions: MCF-7, protein 10 μM, Co-h 150 μM for 5 minutes
Experimental: as §1, §2, §3

SK-BR-3 = test: as above; assay type: cell-based, human; conditions: SK-BR-3, protein 10 μM, Co-h 150 μM for 5 minutes
Experimental: as §1, §2, §3

MDA-MB-231 = test: as above; assay type: cell-based, human; conditions: MDA-MB-231, protein 10 μM, Co-h 150 μM for 5 minutes
Experimental: as §1, §2, §3

[3] = Bioluminescence assay of purified proteins with Co-h substrate (BRET); assay type: physicochemical; conditions: protein 1 μM, Co-h 50 μM, 1×PBS
Experimental: In addition, 100 μL of buffer (1×PBS) containing the protein purified in Example 1 (final concentration: 1 μM) was dispensed into a 96-well plate (SPL Cell Culture Plate, 96 well (SPL, Cat #30196)), and bioluminescence assay was then performed using 50 μL of buffer (1×PBS) containing a Co-h substrate solution (final concentration: 50 μM), which is a wild-type 2-deoxy derivative. Bioluminescence intensity was immediately measured at a wavelength of 300 to 800 nm using a Thermo Scientific™ Varioskan™ Flash Multimode Reader.

[4] = Fluorescence assay of purified proteins (excitation/emission); assay type: physicochemical; conditions: protein 10 μM in 1×PBS
Experimental: 100 μL of buffer (1×PBS) containing the protein purified in Example 1 (final concentration: 10 μM) was dispensed into a 96-well plate (SPL Cell Culture Plate, 96 well (SPL, Cat #32096)). Afterward, a fluorescence signal level was detected by fluorescence assay using a Thermo Scientific™ Varioskan™ Flash Multimode Reader.

RLuc8-MS: fusion protein of RLuc8 and MiniSOG without lead peptide, 53 kDa
cell viability / colorimetric change of MTT with light irradiation time (MCF-7 cells [1]): alive | cell viability / colorimetric change of MTT with reaction time with Co-h (MCF-7 cells [2]): the staining becomes pink | cell death with Co-h substrate (BT-474): none of the six breast cancer cell lines were killed | cell death with Co-h substrate (MCF-10A): none of the six breast cancer cell lines were killed | cell death with Co-h substrate (MDA-MB-435): none of the six breast cancer cell lines were killed | cell death with Co-h substrate (MCF-7): none of the six breast cancer cell lines were killed | cell death with Co-h substrate (SK-BR-3): none of the six breast cancer cell lines were killed | cell death with Co-h substrate (MDA-MB-231): none of the six breast cancer cell lines were killed

MS: first protein MiniSOG, ROS-generating protein (singlet oxygen), expressed from pRSET-MiniSOG, 13 kDa [reference compound]
emission in bioluminescence assay (BRET) [3]: 500 nm | cell viability / colorimetric change of MTT with light irradiation time (MCF-7 cells [1]): alive | cell viability / colorimetric change of MTT with reaction time with Co-h (MCF-7 cells [2]): the staining becomes pink | emission wavelength (fluorescence) [4]: 500 nm and 528 nm | excitation wavelength [4]: 448 nm
